According to US12441726B2, “Compounds and uses thereof” (Foghorn Therapeutics Inc., priority 2020, dated 2025):

Assays:
BRG-1 = BRG-1 (Homo sapiens, UniProt P51532); test: ATPase catalytic activity assay (ADP-Glo), BRG-1; details: for Emax: 1 h, read-out: BRG1 Max % Inhibition, ADP-Glo, 30 nM BRG-1, 400 μM ATP
BRM = BRM (Homo sapiens, UniProt P51531); test: ATPase catalytic activity assay (ADP-Glo), BRM; details: 30 nM BRM, 400 μM ATP; for IC50: BRM ATPase: IC50 (uM)
Sequence of BRM (P51531 whole entry): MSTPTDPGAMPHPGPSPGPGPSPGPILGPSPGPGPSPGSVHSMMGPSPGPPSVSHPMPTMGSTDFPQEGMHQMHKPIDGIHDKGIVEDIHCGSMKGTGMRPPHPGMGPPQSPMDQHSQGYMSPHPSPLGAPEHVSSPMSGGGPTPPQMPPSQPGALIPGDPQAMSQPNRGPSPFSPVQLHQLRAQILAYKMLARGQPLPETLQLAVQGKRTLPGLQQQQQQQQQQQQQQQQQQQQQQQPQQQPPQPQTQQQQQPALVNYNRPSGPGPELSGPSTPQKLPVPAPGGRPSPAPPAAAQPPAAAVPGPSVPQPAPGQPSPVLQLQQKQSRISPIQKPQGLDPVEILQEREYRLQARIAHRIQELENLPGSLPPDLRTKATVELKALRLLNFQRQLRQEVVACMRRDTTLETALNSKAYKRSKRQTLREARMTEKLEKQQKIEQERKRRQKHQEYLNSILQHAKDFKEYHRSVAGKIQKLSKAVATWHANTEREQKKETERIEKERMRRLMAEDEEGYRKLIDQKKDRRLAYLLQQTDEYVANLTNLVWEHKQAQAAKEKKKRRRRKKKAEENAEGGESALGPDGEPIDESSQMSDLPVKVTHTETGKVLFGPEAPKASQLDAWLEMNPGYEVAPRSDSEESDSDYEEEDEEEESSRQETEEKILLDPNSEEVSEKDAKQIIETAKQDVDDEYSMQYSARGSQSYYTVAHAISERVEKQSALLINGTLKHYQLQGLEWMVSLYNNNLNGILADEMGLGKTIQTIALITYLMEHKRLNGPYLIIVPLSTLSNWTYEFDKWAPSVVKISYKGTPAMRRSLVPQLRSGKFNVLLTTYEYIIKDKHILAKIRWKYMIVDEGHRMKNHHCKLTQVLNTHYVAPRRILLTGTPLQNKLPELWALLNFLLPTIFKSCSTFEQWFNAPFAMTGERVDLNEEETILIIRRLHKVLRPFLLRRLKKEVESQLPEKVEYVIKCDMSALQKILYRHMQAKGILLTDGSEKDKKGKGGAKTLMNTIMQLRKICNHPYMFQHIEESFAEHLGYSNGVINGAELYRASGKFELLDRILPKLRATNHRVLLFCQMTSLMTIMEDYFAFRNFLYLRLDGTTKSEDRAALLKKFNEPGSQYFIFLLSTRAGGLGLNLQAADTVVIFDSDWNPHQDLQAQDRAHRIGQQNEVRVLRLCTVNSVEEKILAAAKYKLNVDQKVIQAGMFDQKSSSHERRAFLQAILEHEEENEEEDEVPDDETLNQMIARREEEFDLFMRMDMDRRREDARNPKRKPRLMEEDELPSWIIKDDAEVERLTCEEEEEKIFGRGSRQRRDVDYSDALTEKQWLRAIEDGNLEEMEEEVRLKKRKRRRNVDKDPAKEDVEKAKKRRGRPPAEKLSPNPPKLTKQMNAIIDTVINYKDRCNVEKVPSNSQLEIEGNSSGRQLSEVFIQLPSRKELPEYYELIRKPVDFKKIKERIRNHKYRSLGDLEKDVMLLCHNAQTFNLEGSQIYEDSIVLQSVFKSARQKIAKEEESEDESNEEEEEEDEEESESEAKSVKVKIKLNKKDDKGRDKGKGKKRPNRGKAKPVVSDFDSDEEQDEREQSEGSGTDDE
Protocol: The ATPase catalytic activity of BRM or BRG-1 was measured by an in vitro biochemical assay using ADP-Glo™ (Promega, V9102). The ADP-Glo™ kinase assay is performed in two steps once the reaction is complete. The first step is to deplete any unconsumed ATP in the reaction. The second step is to convert the reaction product ADP to ATP, which will be utilized by the luciferase to generate luminesce and be detected by a luminescence reader, such as Envision.
Then following addition of 5 μL of ADP-Glo™ Reagent provided in the kit, the reaction incubates at room temperature for 40 minutes. Then 10 μL of Kinase Detection Reagent provided in the kit is added to convert ADP to ATP, and the reaction incubates at room temperature for 60 minutes. Finally, luminescence measurement is collected with a plate-reading luminometer, such as Envision.

Sequence of BRG-1 (P51532 whole entry): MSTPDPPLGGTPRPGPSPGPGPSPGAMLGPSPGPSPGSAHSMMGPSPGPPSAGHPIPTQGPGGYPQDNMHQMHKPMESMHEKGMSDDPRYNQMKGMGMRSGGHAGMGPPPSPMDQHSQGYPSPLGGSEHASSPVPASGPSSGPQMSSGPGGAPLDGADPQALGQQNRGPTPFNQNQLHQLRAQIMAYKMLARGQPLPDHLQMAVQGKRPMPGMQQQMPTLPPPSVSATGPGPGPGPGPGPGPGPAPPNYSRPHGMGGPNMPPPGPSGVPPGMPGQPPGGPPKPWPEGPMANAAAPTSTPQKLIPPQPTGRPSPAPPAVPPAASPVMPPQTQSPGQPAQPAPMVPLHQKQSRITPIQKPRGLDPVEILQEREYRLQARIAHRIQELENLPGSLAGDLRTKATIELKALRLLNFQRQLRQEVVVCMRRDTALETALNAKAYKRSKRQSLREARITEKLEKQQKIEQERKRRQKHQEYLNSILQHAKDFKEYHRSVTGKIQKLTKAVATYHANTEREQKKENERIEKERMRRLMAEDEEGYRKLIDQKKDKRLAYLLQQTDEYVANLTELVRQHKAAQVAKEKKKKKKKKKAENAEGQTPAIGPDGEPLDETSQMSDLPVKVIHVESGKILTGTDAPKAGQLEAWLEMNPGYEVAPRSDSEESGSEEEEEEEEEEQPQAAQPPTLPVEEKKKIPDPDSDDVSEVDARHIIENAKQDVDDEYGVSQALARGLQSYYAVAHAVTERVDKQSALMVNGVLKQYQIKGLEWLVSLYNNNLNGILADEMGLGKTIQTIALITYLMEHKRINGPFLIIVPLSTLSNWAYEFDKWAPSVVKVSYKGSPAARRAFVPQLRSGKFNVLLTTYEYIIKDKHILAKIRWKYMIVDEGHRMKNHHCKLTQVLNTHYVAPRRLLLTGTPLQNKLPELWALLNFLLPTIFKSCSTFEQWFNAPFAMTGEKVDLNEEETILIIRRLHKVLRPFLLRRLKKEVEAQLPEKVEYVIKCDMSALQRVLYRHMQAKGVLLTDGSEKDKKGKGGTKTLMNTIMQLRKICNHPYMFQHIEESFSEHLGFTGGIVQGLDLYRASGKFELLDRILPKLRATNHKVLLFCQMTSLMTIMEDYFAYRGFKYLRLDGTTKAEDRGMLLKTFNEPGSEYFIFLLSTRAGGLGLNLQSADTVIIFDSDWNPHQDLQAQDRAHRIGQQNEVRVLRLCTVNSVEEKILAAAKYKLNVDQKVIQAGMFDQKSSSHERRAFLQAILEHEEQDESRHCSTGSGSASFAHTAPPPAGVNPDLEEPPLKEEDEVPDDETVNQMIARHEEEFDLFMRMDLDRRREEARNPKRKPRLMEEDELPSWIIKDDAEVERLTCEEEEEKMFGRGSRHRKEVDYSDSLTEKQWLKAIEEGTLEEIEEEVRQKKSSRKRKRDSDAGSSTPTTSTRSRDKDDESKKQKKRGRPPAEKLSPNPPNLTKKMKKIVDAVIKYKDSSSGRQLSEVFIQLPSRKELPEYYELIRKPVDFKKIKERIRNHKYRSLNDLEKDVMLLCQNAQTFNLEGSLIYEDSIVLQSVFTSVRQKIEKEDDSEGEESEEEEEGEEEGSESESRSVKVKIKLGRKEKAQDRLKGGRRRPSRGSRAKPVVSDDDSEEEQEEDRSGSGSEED

SMILES | IC50 (BRG-1) | Emax (BRG-1) | BRM Max % Inhibition (BRM) | IC50 (BRM)
Cn1ccc2c(-c3ccc4cnc(CNC(=O)c5ccc6c(c5)[C@](C)(C#N)COC6)cc4n3)cccc21 [Compound 179] | 100 to 500 nM | 96% | 99% | < 0.1 µM
Cn1c(=O)ccc2ccc(-c3ccc4cnc(CNC(=O)c5ccc6c(c5)[C@](C)(C#N)COC6)cc4n3)nc21 [Compound 180] | 100 to 500 nM | 99% | 100% | < 0.1 µM
C[C@@]1(C#N)COCc2ncc(C(=O)NCc3cc4cc(-c5cncc(C6CC6)n5)ccc4cn3)cc21 [Compound 181] | 100 to 500 nM | 97% | 100% | < 0.1 µM
Cn1ncc2c(-c3ccc4cnc(CNC(=O)c5ccc6c(c5)[C@](C)(C#N)COC6)cc4n3)cccc21 [Compound 182] | 100 to 500 nM | 95% | 99% | < 0.1 µM
C[C@@]1(F)COCc2ncc(C(=O)NCc3cc4nc(-c5ccnc(N6CCC6)n5)cnc4cn3)cc21 [Compound 183] | 100 to 500 nM | 82% | 98% | < 0.1 µM
COc1c(-c2ccc3cnc(CNC(=O)c4ccc5c(c4)[C@](C)(C#N)COC5)cc3n2)cnn1C(F)F [Compound 184] | 500 to 1000 nM | 67% | 94% | 0.1 to 0.5 µM
COc1nn([C@H]2C[C@H](F)C2)cc1-c1ccc2cnc(CNC(=O)c3ccc4c(c3)[C@](C)(C#N)COC4)cc2n1 [Compound 185] | 100 to 500 nM | 87% | 99% | < 0.1 µM
C[C@@]1(C#N)COCc2ccc(C(=O)NCc3cc4nc(-c5cn(C6COC6)nc5C5CC5)ccc4cn3)cc21 [Compound 186] | 500 to 1000 nM | 66% | 97% | < 0.1 µM
Cc1c(-c2ccc3cnc(CNC(=O)c4ccc5c(c4)[C@](C)(C#N)COC5)cc3n2)cnn1C1COC1 [Compound 187] | > 1000 nM | 42% | 88% | 0.1 to 0.5 µM
Cc1nn(C2COC2)cc1-c1ccc2cnc(CNC(=O)c3ccc4c(c3)[C@](C)(C#N)COC4)cc2n1 [Compound 188] | > 1000 nM | 41% | 93% | 0.1 to 0.5 µM
C[C@@]1(C#N)COCc2ncc(C(=O)NCc3cc4nc(-c5cccc(C6CC6)n5)ccc4nn3)cc21 [Compound 189] | 100 to 500 nM | 93% | 99% | < 0.1 µM
C[C@@]1(F)COCc2ccc(C(=O)NCc3cc4nc(-c5ccnc(N6CCC6)n5)cnc4cn3)cc21 [Compound 190] | 100 to 500 nM | 89% | 98% | < 0.1 µM
C[C@@]1(F)COCc2ccc(C(=O)NCc3cc4nc(-c5ccnc(C6CC6)n5)cnc4cn3)cc21 [Compound 191] | 500 to 1000 nM | 76% | 97% | < 0.1 µM
COc1nn(C(F)F)cc1-c1ccc2cnc(CNC(=O)c3cnc4c(c3)[C@](C)(F)COC4)cc2n1 [Compound 192] | 500 to 1000 nM | 60% | 94% | 0.1 to 0.5 µM
COc1nn(C(F)F)cc1-c1ccc2cnc(CNC(=O)c3ccc4c(c3)[C@](C)(C#N)COC4)cc2n1 [Compound 193] | 500 to 1000 nM | 86% | 99% | < 0.1 µM
C[C@@]1(C#N)COCc2ccc(C(=O)NCc3cc4nc(-c5cccc(C6(C(F)F)COC6)c5)ccc4cn3)cc21 [Compound 194] | 500 to 1000 nM | 60% | 93% | 0.1 to 0.5 µM
COc1cc(C)nn1-c1ccc2cnc(CNC(=O)c3ccc4c(c3)[C@](C)(C#N)COC4)cc2n1 [Compound 195] | > 1000 nM | 47% | 84% | 0.1 to 0.5 µM
Cn1ccc2ccc(-c3ccc4cnc(CNC(=O)c5ccc6c(c5)[C@](C)(C#N)COC6)cc4n3)nc2c1=O [Compound 196] | > 1000 nM | 59% | 86% | 0.1 to 0.5 µM

Other lines, results leading:

IC50 (BRG-1) | Emax (BRG-1) | BRM Max % Inhibition (BRM) | IC50 (BRM) | SMILES
> 1000 nM | 59% | 89% | 0.1 to 0.5 µM | COc1nn(C2CCOC2)cc1-c1ccc2cnc(CNC(=O)c3ccc4c(c3)[C@](C)(C#N)COC4)cc2n1 (stereo partly shown) [Compound 197]
500 to 1000 nM | 76% | 94% | 0.1 to 0.5 µM | C[C@@]1(C#N)COCc2ncc(C(=O)NCc3cc4nc(-c5cccc(C6CC6)c5)ccc4nn3)cc21 [Compound 198]
> 1000 nM | 14% | 85% | 0.1 to 0.5 µM | C[C@@]1(F)COCc2ccc(C(=O)NCc3cc4nc(-c5ccnc(C6CC6)n5)sc4cn3)cc21 [Compound 199]
500 to 1000 nM | 71% | 97% | 0.1 to 0.5 µM | COc1nn(C2CCC2)cc1-c1ccc2cnc(CNC(=O)c3ccc4c(c3)[C@](C)(C#N)COC4)cc2n1 [Compound 200]
500 to 1000 nM | 76% | 99% | < 0.1 µM | COc1nn(C2COC2)cc1-c1ccc2cnc(CNC(=O)c3ccc4c(c3)[C@](C)(F)COC4)cc2n1 [Compound 201]
500 to 1000 nM | 67% | 94% | < 0.1 µM | COc1nn(CC(F)F)cc1-c1ccc2cnc(CNC(=O)c3ccc4c(c3)[C@](C)(C#N)COC4)cc2n1 [Compound 202]
> 1000 nM | 26% | 84% | 0.1 to 0.5 µM | COCCn1cc(-c2ccc3cnc(CNC(=O)c4ccc5c(c4)[C@](C)(C#N)COC5)cc3n2)c(OC)n1 [Compound 203]
500 to 1000 nM | 82% | 97% | < 0.1 µM | C[C@@]1(C#N)COCc2ccc(C(=O)NCc3cc4nc(-c5ccnc(C6(F)CC6)n5)ccc4cn3)cc21 [Compound 204]
500 to 1000 nM | 52% | 91% | 0.1 to 0.5 µM | CCC(C)(O)c1cccc(-c2ccc3cnc(CNC(=O)c4ccc5c(c4)[C@](C)(F)COC5)cc3n2)n1 (stereo partly shown) [Compound 205]
100 to 500 nM | 85% | 99% | < 0.1 µM | C[C@@]1(C#N)COCc2ccc(C(=O)NCc3ncc4ccc(-c5cncc(C6CC6)n5)cc4n3)cc21 [Compound 206]
100 to 500 nM | 89% | 98% | < 0.1 µM | C[C@@]1(F)COCc2ccc(C(=O)NCc3cc4nc(-c5ccnc(N6CCC6)c5F)cnc4cn3)cc21 [Compound 207]
100 to 500 nM | 92% | 98% | < 0.1 µM | C[C@@]1(C#N)COCc2ncc(C(=O)NCc3cc4nc(-c5cccc(C6CC6)n5)ccc4cn3)cc21 [Compound 208]
500 to 1000 nM | 51% | 89% | 0.1 to 0.5 µM | CC1c2cc(CNC(=O)c3ccc4c(c3)[C@](C)(C#N)COC4)ncc2CCN1c1cncc(C2CC2)n1 (stereo partly shown) [Compound 209]
100 to 500 nM | 96% | 99% | < 0.1 µM | C[C@@]1(C#N)COCc2ncc(C(=O)NCc3cc4nc(-c5cccc(N6CCC6)n5)ccc4cn3)cc21 [Compound 210]
500 to 1000 nM | 82% | 97% | 0.1 to 0.5 µM | [2H]C1([2H])OC[C@@](C)(F)c2cc(C(=O)NCc3cc4nc(-c5cncc(C6CC6)n5)ccc4cn3)cnc21 [Compound 211]
> 1000 nM | 39% | 89% | 0.1 to 0.5 µM | C[C@@H](O)c1cccc(-c2ccc3cnc(CNC(=O)c4cnc5c(c4)[C@](C)(F)COC5)cc3n2)n1 [Compound 212]
500 to 1000 nM | 63% | 97% | 0.1 to 0.5 µM | C[C@H](O)c1cccc(-c2ccc3cnc(CNC(=O)c4ccc5c(c4)[C@](C)(F)COC5)cc3n2)n1 [Compound 213]
100 to 500 nM | 93% | 99% | < 0.1 µM | C[C@@]1(F)COCc2ccc(C(=O)NCc3cc4nc(-c5cccc(N6CCC6)n5)cnc4cn3)cc21 [Compound 214]
100 to 500 nM | 90% | 97% | < 0.1 µM | C[C@@]1(F)COCc2ncc(C(=O)NCc3cc4nc(-c5ccnc(N6CCC6)c5F)cnc4cn3)cc21 [Compound 215]
100 to 500 nM | 90% | 98% | < 0.1 µM | C[C@@]1(F)COCc2ncc(C(=O)NCc3cc4nc(-c5cccc(N6CCC6)n5)cnc4cn3)cc21 [Compound 216]
500 to 1000 nM | 79% | 98% | < 0.1 µM | C[C@@]1(C#N)COCc2ccc(C(=O)NCc3cc4nc(-c5ccnc([C@H]6CC6(F)F)n5)ccc4cn3)cc21 [Compound 217]
500 to 1000 nM | 79% | 99% | < 0.1 µM | C[C@@]1(C#N)COCc2ccc(C(=O)NCc3cc4nc(-c5ccnc([C@@H]6CC6(F)F)n5)ccc4cn3)cc21 [Compound 218]
500 to 1000 nM | 57% | 94% | 0.1 to 0.5 µM | C[C@@]1(C#N)COCc2ccc(C(=O)NCc3cc4cc(N5CCn6ncc(C(F)F)c6C5)ccc4nn3)cc21 [Compound 219]
> 1000 nM | 47% | 92% | 0.1 to 0.5 µM | C[C@@]1(C#N)COCc2ccc(C(=O)NCc3cc4cc(N5CCn6ncc(C(F)F)c6C5)cnc4cn3)cc21 [Compound 220]
100 to 500 nM | 88% | 99% | < 0.1 µM | C[C@@]1(C#N)COCc2ncc(C(=O)NCc3cc4nc(-c5cncc(C6CC6)n5)ccc4cn3)cc21 [Compound 221]
